Patent publication US4472579A, “Process for the preparation of quinoline carboxylic acid derivatives” (Kyorin Seiyaku Kabushiki Kaisha, priority 1980, dated 1984)
Converted amounts (≈) assume the structure as drawn. Read-outs that look alike come from different tables or passages of the source.

Tests used:
Assay in all cases: Antibacterial activity, agar dilution streak MIC
Format in all cases: cell-based
[1] = system: Staphyloccocus aureus 209P; conditions: read-out: Minimum inhibitory concentration
Method: (§1) The antibacterial activities of the compounds of this invention were assayed by the standard agar dilution streak method against Gram-positive and Gram-negative bacteria [Chemothrapy, 22, 1126 (1974)].

[2] = system: Pseudo. aeruginosa IF012689; conditions: Pseudomonas aeruginosa; Pseudo. aeruginosa IF012689, Gram -; read-out: Minimum inhibitory concentration
Method: as §1

[3] = system: Klebsiella pneumoniae IF03512; conditions: Klebsiella pneumoniae IF03512, Gram -; read-out: Minimum inhibitory concentration
Method: as §1

[4] = system: Salmonella enteritidis IID604; conditions: Salmonella enterica, read-out: Minimum inhibitory concentration
Method: as §1

[5] = system: Streptococcus pyogenes IID692; conditions: Streptococcus pyogenes IID692, Gram +; read-out: Minimum inhibitory concentration
Method: as §1

[6] = system: Diplococcus pneumoniae IID552; conditions: Streptococcus pneumoniae; Diplococcus pneumoniae IID552, Gram +; read-out: Minimum inhibitory concentration
Method: as §1

Shigella sonnei IID969 = conditions: Shigella sonnei IID969, Gram -; read-out: Minimum inhibitory concentration
Method: The antibacterial activities of the compounds of this invention were assayed by the standard agar dilution streak method against Gram-positive and Gram-negative bacteria [Chemothrapy, 22, 1126 (1974)]. The result was shown in Table 1 together with a known agent, nalidixic acid.

Proteus vulgaris IF03167 = conditions: Proteus vulgaris IF03167, Gram -; read-out: Minimum inhibitory concentration
Method: as §1

Bacillus subtilis PCI219 = conditions: Bacillus subtilis PCI219, Gram +; read-out: Minimum inhibitory concentration
Method: as §1

[7] = system: Escherichia coli NIHJ JC-2; conditions: NIHJJC2, read-out: Minimum inhibitory concentration
Method: as §1

S. aureus ATCC14775 = conditions: Staphylococcus aureus; S. aureus ATCC14775, Gram +; read-out: Minimum inhibitory concentration
Method: as §1

[8] = system: Pseudomonas aeruginosa VI; conditions: Gram -, read-out: Minimum inhibitory concentration
Method: as §1

Row | SMILES | MIC [2] | MIC [3] | MIC [5] | MIC [6] | MIC (Shigella sonnei IID969) | other results
1 | CCn1cc(C(=O)O)c(=O)c2ccc(C)nc21 [NA, Nalidixic acid, reference compound] | – | – | – | – | – | MIC [1]: 50 µg/mL (≈ 215 µM)
2 | CCn1cc(C(=O)O)c(=O)c2cc(F)c(N3CCN(C)CC3)cc21 [Example 6, 1-ethyl-6-fluoro-7-(4-methyl-1-piperazinyl)-4-oxo-1,4-dihydroquinoline-3-carboxylic acid] | 3.13 µg/mL (≈ 9.39 µM) | 0.05 µg/mL (≈ 0.15 µM) | 6.25 µg/mL (≈ 18.7 µM) | 3.13 µg/mL (≈ 9.39 µM) | 0.1 µg/mL (≈ 0.3 µM) | MIC [4]: 0.78 µg/mL (≈ 2.34 µM)
3 | C=Cn1cc(C(=O)O)c(=O)c2cc(F)c(N3CCN(C)CC3)cc21 [Example 9, 1-vinyl-6-fluoro-7-(4-methyl-1-piperazinyl)-4-oxo-1,4-dihydroquinoline-3-carboxylic acid] | – | – | 12.5 µg/mL (≈ 37.7 µM) | – | – | –
4 | CCn1cc(C(=O)O)c(=O)c2cc(F)c(N3CCNCC3)cc21 [Example 1, 1-ethyl-6-fluoro-7-(1-piperazinyl)-4-oxo-1,4-dihydroquinoline-3-carboxylicacid] | 1.56 µg/mL (≈ 4.89 µM) | 0.05 µg/mL (≈ 0.157 µM) | 1.56 µg/mL (≈ 4.89 µM) | 3.13 µg/mL (≈ 9.8 µM) | 0.1 µg/mL (≈ 0.313 µM) | MIC ([1]; Staphyloccocus aureus 209P, Gram +): 0.78 µg/mL (≈ 2.44 µM); MIC ([4]; Salmonella enteritidis IID604, Gram -): 0.2 µg/mL (≈ 0.626 µM); MIC (Proteus vulgaris IF03167): 0.1 µg/mL (≈ 0.313 µM); MIC (Bacillus subtilis PCI219): 0.39 µg/mL (≈ 1.22 µM); MIC [7]: 0.1 µg/mL (≈ 0.313 µM); MIC (S. aureus ATCC14775): 3.13 µg/mL (≈ 9.8 µM); MIC [8]: 0.39 µg/mL (≈ 1.22 µM)
5 | C=Cn1cc(C(=O)O)c(=O)c2cc(F)c(N3CCNCC3)cc21 [Example 8, 1-vinyl-6-fluoro-7-(1-piperazinyl)-4-oxo-1,4-dihydroquinoline-3-carboxylicacid] | – | – | 12.5 µg/mL (≈ 39.4 µM) | – | – | –
